A value given as a limit tells only on which side of the number the result lay.

These results are taken from patent US11590116B2 (THERAVANCE BIOPHARMA R&D IP, LLC, priority 2019, dated 2023).

In assay [1] the target is T1, recombinant human ALK5 (TGF-βR1) protein (Homo sapiens, UniProt P36897).
T1 construct: purchased Life Technologies PR9075A
T1 sequence (P36897 34-503): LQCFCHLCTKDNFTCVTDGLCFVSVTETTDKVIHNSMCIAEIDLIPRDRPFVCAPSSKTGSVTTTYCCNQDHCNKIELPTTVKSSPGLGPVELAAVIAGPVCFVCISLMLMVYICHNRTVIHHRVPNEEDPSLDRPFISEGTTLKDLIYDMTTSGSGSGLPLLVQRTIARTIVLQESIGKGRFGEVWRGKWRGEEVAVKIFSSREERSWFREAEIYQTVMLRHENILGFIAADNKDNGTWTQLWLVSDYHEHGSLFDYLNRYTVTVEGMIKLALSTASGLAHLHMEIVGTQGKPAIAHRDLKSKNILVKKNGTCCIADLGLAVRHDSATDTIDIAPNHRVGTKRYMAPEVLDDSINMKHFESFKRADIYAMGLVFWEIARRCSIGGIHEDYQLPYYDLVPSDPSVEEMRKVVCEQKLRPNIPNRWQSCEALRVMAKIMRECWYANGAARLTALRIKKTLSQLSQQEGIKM
Description: Biochemical ALK5 (TGF-βR1) assay to measure pKi (LANCE Ultra ULight kinase assay). Conditions: apparent pKi from pIC50 by Cheng-Prusoff, read-out: ALK5 pKi (converted). The procedure, abridged: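 After a 60 min room-temperature preincubation of ALK5 with compound, phosphorylation proceeds 60 min at 37 °C on ATP addition (125 μM as 5× stock). Detection: Eu-labelled phospho-Thr1342 Topo IIα antibody in EDTA buffer, pH 7.0; emission 665 nm.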
In general terms: Time-resolved FRET reads energy transfer from a long-lived donor to a nearby acceptor.

The subject of assay [2] is TGF-β-stimulated SMAD3 phosphorylation in BEAS-2B cells. Description: Cellular ALK5 potency assay, inhibition of TGF-β stimulated pSMAD3 formation in BEAS-2B cells. The class given is cell-based. Conditions: Homo sapiens; inhibition of TGF-β stimulated pSMAD3 formation, BEAS-2B cells; read-out: BEAS2B pIC50 (converted). The procedure, abridged:
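Potency is reported as pIC50, derived from concentration-dependent reduction of pSMAD3 AlphaLISA signal against TGF-β-stimulated cells without compound. BEAS-2B cells received compound for 1 h before a 30-min stimulation with 10 ng/mL TGF-β.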

Turning to `Cc1cccc(-c2[nH]cnc2-c2ccc3ncc(C(=O)OC4CCNCC4)cc3c2)n1` [Compound 740, piperidin-4-yl 6-(5-(6-methylpyridin-2-yl)-1H-imidazol-4-yl)quinoline-3-carboxylate], the Ki in assay [1] is 0.0398 to 0.316 nM. Moreover, in assay [2], the IC50 is 25.1 to 158 nM.

With `COc1cnc2ccc(-c3c[nH]nc3-c3cccc(C)n3)nc2c1` [Compound 321, 7-methoxy-2-[3-(6-methyl-2-pyridyl)-1H-pyrazol-4-yl]-1,5-naphthyridine], the Ki in assay [1] is < 0.0316 nM. In addition, in assay [2], the IC50 was < 20 nM.

On to `CNCc1cncc(-c2cnc3ccc(-c4c[nH]nc4-c4cccc(C)n4)nc3c2)c1` [Compound 214, N-methyl-1-[5-[6-[3-(6-methyl-2-pyridyl)-1H-pyrazol-4-yl]-1,5-naphthyridin-3-yl]-3-pyridyl]methanamine], for which the Ki in assay [1] is 0.0398 to 0.316 nM. Besides, the IC50 in assay [2] is 25.1 to 158 nM.

For `Cc1cccc(-c2[nH]ncc2-c2ccc3ncc(C(=O)NC4CCNCC4)cc3n2)n1` [Compound 337, 6-[5-(6-methyl-2-pyridyl)-1H-pyrazol-4-yl]-N-(4-piperidyl)-1,5-naphthyridine-3-carboxamide], the Ki in assay [1] is 0.0398 to 0.316 nM. Further, the IC50 in assay [2] was 200 to 1260 nM.

Take `Cc1cccc(-c2nnn(Cc3ccccc3)c2-c2ccc3ncc(-c4cn[nH]c4)cc3c2)n1` [Compound 254, 6-[3-benzyl-5-(6-methyl-2-pyridyl)triazol-4-yl]-3-(1H-pyrazol-4-yl)quinoline]: the Ki in assay [1] is 0.0398 to 0.316 nM. Also, in assay [2], the IC50 was 25.1 to 158 nM.

As for `Cc1cccc(-c2[nH]cnc2-c2ccc3ncc(-c4ccc(C(=O)OCC5CNC5)nc4)cc3c2)n1` [Compound 54, azetidin-3-ylmethyl 5-[6-[5-(6-methyl-2-pyridyl)-1H-imidazol-4-yl]-3-quinolyl]pyridine-2-carboxylate], in assay [1], the Ki was 0.0398 to 0.316 nM. In addition, the IC50 in assay [2] was 200 to 1260 nM.

For `CNCCn1ccc(-c2cnc3ccc(-c4nc[nH]c4-c4cccc(C)n4)nc3c2)n1` [Compound 152, N-methyl-2-[3-[6-[5-(6-methyl-2-pyridyl)-1H-imidazol-4-yl]-1,5-naphthyridin-3-yl]pyrazol-1-yl]ethanamine], the Ki in assay [1] is < 0.0316 nM. The IC50 in assay [2] was 25.1 to 158 nM.

For the molecule `Cc1nc(-c2n[nH]cc2-c2ccc3ncc(-c4nnn5c4NCCC5)cc3n2)ccc1F` [Compound 263, 2-[3-(5-fluoro-6-methyl-2-pyridyl)-1H-pyrazol-4-yl]-7-(4,5,6,7-tetrahydrotriazolo[1,5-a]pyrimidin-3-yl)-1,5-naphthyridine], in assay [1], the Ki is 0.0398 to 0.316 nM. The IC50 in assay [2] was 25.1 to 158 nM.

Take `Cc1cccc(-c2n[nH]cc2-c2ccc3ncc(NCCN4CCNCC4)cc3n2)n1` [Compound 668, 6-[3-(6-methyl-2-pyridyl)-1H-pyrazol-4-yl]-N-(2-piperazin-1-ylethyl)-1,5-naphthyridin-3-amine]: the Ki in assay [1] is < 0.0316 nM. For the same molecule, the IC50 in assay [2] is 200 to 1260 nM.

For `Cc1cccc(-c2[nH]cnc2-c2ccc3nccc(C(=O)O[C@H]4CC[C@@](C)(N)CC4)c3c2)n1` [Compound 1161, (4-amino-4-methyl-cyclohexyl) 6-[5-(6-methyl-2-pyridyl)-1H-imidazol-4-yl]quinoline-4-carboxylate], in assay [1], the Ki was 3.98 to 31.6 nM. Further, the IC50 in assay [2] is 200 to 1260 nM.

With `Cc1cccc(-c2n[nH]cc2-c2ccc3ncc(C4=CCNCC4)cc3n2)n1` [Compound 15, 2-[3-(6-methyl-2-pyridyl)-1H-pyrazol-4-yl]-7-(1,2,3,6-tetrahydropyridin-4-yl)-1,5-naphthyridine], the Ki in assay [1] is < 0.0316 nM. Also, in assay [2], the IC50 was < 20 nM.

With `Cc1cccc(-c2[nH]cnc2-c2ccc3ncc(-c4cncc(C(=O)O[C@@H]5CCN(C)C5)c4)cc3c2)n1` [Compound 396, [(3R)-1-methylpyrrolidin-3-yl] 5-[6-[5-(6-methyl-2-pyridyl)-1H-imidazol-4-yl]-3-quinolyl]pyridine-3-carboxylate], the Ki in assay [1] was 0.0398 to 0.316 nM. For the same molecule, in assay [2], the IC50 is 25.1 to 158 nM.

For the molecule `Cc1cccc(-c2[nH]cnc2-c2ccc3ncc(-c4ccc(C(=O)OCC5CNC5)cc4)cc3c2)n1` [Compound 650, azetidin-3-ylmethyl 4-[6-[5-(6-methyl-2-pyridyl)-1H-imidazol-4-yl]-3-quinolyl]benzoate], the Ki in assay [1] was 0.0398 to 0.316 nM. For the same molecule, the IC50 in assay [2] was 25.1 to 158 nM.

For `CNCCn1cc(-c2ccnc3ccc(-c4c[nH]nc4-c4cccc(C)n4)cc23)cn1` [Compound 865, N-methyl-2-[4-[6-[3-(6-methyl-2-pyridyl)-1H-pyrazol-4-yl]-4-quinolyl]pyrazol-1-yl]ethanamine], the Ki in assay [1] is 0.0398 to 0.316 nM. Also, the IC50 in assay [2] was 25.1 to 158 nM.

For the molecule `Cc1nc(-c2n[nH]cc2-c2ccc3ncc(-c4cnc5n4CCCN5)cc3n2)ccc1F` [Compound 123, 2-[3-(5-fluoro-6-methyl-2-pyridyl)-1H-pyrazol-4-yl]-7-(5,6,7,8-tetrahydroimidazo[1,2-a]pyrimidin-3-yl)-1,5-naphthyridine], the Ki in assay [1] was 0.0398 to 0.316 nM. Also, the IC50 in assay [2] is 25.1 to 158 nM.

In the case of `Cc1nc(-c2nc3ccccn3c2-c2ccc3ncc(-c4nc5n(n4)CCNC5)cc3n2)ccc1F` [Compound 447, 2-[2-(5-fluoro-6-methyl-2-pyridyl)imidazo[1,2-a]pyridin-3-yl]-7-(5,6,7,8-tetrahydro-[1,2,4]triazolo[1,5-a]pyrazin-2-yl)-1,5-naphthyridine], the Ki in assay [1] was 0.0398 to 0.316 nM. In addition, the IC50 in assay [2] was 25.1 to 158 nM.

As to `Cc1cccc(-c2n[nH]cc2-c2ccc3ncc(N4CC(N(C)C)C4)cc3n2)n1` [Compound 368, N,N-dimethyl-1-[6-[3-(6-methyl-2-pyridyl)-1H-pyrazol-4-yl]-1,5-naphthyridin-3-yl]azetidin-3-amine], the Ki in assay [1] is < 0.0316 nM. Further, the IC50 in assay [2] is 25.1 to 158 nM.

Consider `Cc1cccc(-c2n[nH]cc2-c2ccc3ncc(N4CC[C@@H](N5CCCCC5)C4)cc3n2)n1` [Compound 542, 2-[3-(6-methyl-2-pyridyl)-1H-pyrazol-4-yl]-7-[(3R)-3-(1-piperidyl)pyrrolidin-1-yl]-1,5-naphthyridine], for which the Ki in assay [1] was < 0.0316 nM. Also, the IC50 in assay [2] was 25.1 to 158 nM.

For the molecule `Cc1cccc(-c2[nH]nnc2-c2ccc3ncc(N4CCC(N5CCN(C)CC5)CC4)cc3c2)n1` [Compound 346, 3-[4-(4-methylpiperazin-1-yl)-1-piperidyl]-6-[5-(6-methyl-2-pyridyl)-1H-triazol-4-yl]quinoline], in assay [1], the Ki is 0.0398 to 0.316 nM. Besides, the IC50 in assay [2] is 25.1 to 158 nM.

As to `Cc1cccc(-c2[nH]cnc2-c2ccc3ncc(N4CC[C@H](N)C4)cc3c2)n1` [Compound 208, (3S)-1-[6-[5-(6-methyl-2-pyridyl)-1H-imidazol-4-yl]-3-quinolyl]pyrrolidin-3-amine], in assay [1], the Ki is 0.0398 to 0.316 nM. The IC50 in assay [2] was < 20 nM.

Consider `Cc1cccc(-c2n[nH]cc2-c2ccc3nccc(N4CCC(N5CCOCC5)CC4)c3n2)n1` [Compound 847, 4-[1-[6-[3-(6-methyl-2-pyridyl)-1H-pyrazol-4-yl]-1,5-naphthyridin-4-yl]-4-piperidyl]morpholine], for which the Ki in assay [1] is 0.0398 to 0.316 nM. In addition, in assay [2], the IC50 was 25.1 to 158 nM.

Turning to `Cc1cccc(-c2[nH]cnc2-c2ccc3ncc(C(=O)OC[C@H]4CCC[C@H](N)C4)cc3c2)n1` (racemic) [Compound 769, [rac-(1S,3S)-3-aminocyclohexyl]methyl 6-[5-(6-methyl-2-pyridyl)-1H-imidazol-4-yl]quinoline-3-carboxylate], in assay [1], the Ki was 0.0398 to 0.316 nM. Besides, the IC50 in assay [2] is 25.1 to 158 nM.

For the molecule `Cc1cccc(-c2[nH]cnc2-c2ccc3ncc(NC(=O)CC4CNC4)cc3c2)n1` [Compound 255, 2-(azetidin-3-yl)-N-[6-[5-(6-methyl-2-pyridyl)-1H-imidazol-4-yl]-3-quinolyl]acetamide], the Ki in assay [1] is 0.0398 to 0.316 nM. For the same molecule, the IC50 in assay [2] was 200 to 1260 nM.

Take `Cc1cccc(-c2n[nH]cc2-c2ccc3ncc(N4CCC(N5CCN(C)CC5)CC4)cc3c2)n1` [Compound 82, 3-(4-(4-Methylpiperazin-1-yl)piperidin-1-yl)-6-(3-(6-methylpyridin-2-yl)-1H-pyrazol-4-yl)quinoline]: the Ki in assay [1] was 0.0398 to 0.316 nM. In assay [2], the IC50 was 25.1 to 158 nM.

Take `Cc1cccc(-c2n[nH]cc2-c2ccc3ncc(-c4ccnc(C(C)(C)C#N)c4)cc3n2)n1` [Compound 341, 2-methyl-2-[4-[6-[3-(6-methyl-2-pyridyl)-1H-pyrazol-4-yl]-1,5-naphthyridin-3-yl]-2-pyridyl]propanenitrile]: the Ki in assay [1] is < 0.0316 nM. Also, in assay [2], the IC50 is < 20 nM.

Consider `Cc1cccc(-c2n[nH]cc2-c2ccc3nccc(CCC(=O)N4CCOCC4)c3n2)n1` [Compound 810, 3-[6-[3-(6-methyl-2-pyridyl)-1H-pyrazol-4-yl]-1,5-naphthyridin-4-yl]-1-morpholino-propan-1-one], for which, in assay [1], the Ki was 0.398 to 3.16 nM. Further, the IC50 in assay [2] is 200 to 1260 nM.
